Organism: Rattus norvegicus
Assay: DrugMatrix - Regimen: Daily Repeat
Type: toxicity, organism-based, Sprague-Dawley
Set-up: regimen Daily Repeat, gender Male, age 6-8 weeks
Details: in vivo, po, route oral GAVAGE, […]; for ABSOLUTE BASOPHIL / ABSOLUTE EOSINOPHIL / ABSOLUTE LYMPHOCYTE / ABSOLUTE MONOCYTE / ABSOLUTE SEGMENTED NEUTROPHIL / BASOPHIL / EOSINOPHIL / ERYTHROCYTE COUNT / HEMATOCRIT / HEMOGLOBIN / LEUKOCYTE COUNT / LYMPHOCYTE / MEAN CORPUSCULAR HEMOGLOBIN / MEAN CORPUSCULAR HEMOGLOBIN CONCENTRATION / MEAN CORPUSCULAR VOLUME / MONOCYTE / NEUTROPHIL / NUCLEATED RED BLOOD CELLS / PLATELET COUNT: tissue Blood; for ALANINE AMINOTRANSFERASE / ALBUMIN / ALKALINE PHOSPHATASE / ASPARTATE AMINOTRANSFERASE / BLOOD UREA NITROGEN / CARBON DIOXIDE / CHLORIDE / CHOLESTEROL / CREATINE PHOSPHOKINASE / CREATININE / GLUCOSE / LACTATE DEHYDROGENASE / LIPASE / PHOSPHORUS / POTASSIUM / SODIUM / TOTAL BILIRUBIN / TOTAL PROTEIN / URIC ACID: tissue Plasma
[1] = 3 mg/kg, 72 h, dose level Low, time 3 day
[2] = 3 mg/kg, 120 h, dose level Low, time 5 day
[3] = 250 mg/kg, 72 h, dose level High, time 3 day
[4] = 250 mg/kg, 120 h, dose level High, time 5 day

N#Cc1ccc(C(c2ccc(C#N)cc2)n2cncn2)cc1 [LETROZOLE]
ABSOLUTE BASOPHIL [1]: 0 CELLS/uL | ABSOLUTE EOSINOPHIL [1]: 184 CELLS/uL | ABSOLUTE LYMPHOCYTE [1]: 10672.33 CELLS/uL | ABSOLUTE MONOCYTE [1]: 0 CELLS/uL | ABSOLUTE SEGMENTED NEUTROPHIL [1]: 1877 CELLS/uL | BASOPHIL [1]: 0% | EOSINOPHIL [1]: 0.67% | ERYTHROCYTE COUNT [1]: 4.51 x10E6/uL | HEMATOCRIT [1]: 28.03% | HEMOGLOBIN [1]: 11.33 G/DL | LEUKOCYTE COUNT [1]: 12.73 x10E3/uL | LYMPHOCYTE [1]: 88.67% | MEAN CORPUSCULAR HEMOGLOBIN [1]: 25.07 pg | MEAN CORPUSCULAR HEMOGLOBIN CONCENTRATION [1]: 40.37 G/DL | MEAN CORPUSCULAR VOLUME [1]: 62.1 fL | MONOCYTE [1]: 0% | NEUTROPHIL [1]: 10.67% | NUCLEATED RED BLOOD CELLS [1]: 0 /100WBC | PLATELET COUNT [1]: 541.33 x10E3/uL | ALANINE AMINOTRANSFERASE [1]: 85.67 u/L | ALBUMIN [1]: 4.07 G/DL | ALKALINE PHOSPHATASE [1]: 351.67 u/L | ASPARTATE AMINOTRANSFERASE [1]: 114.67 u/L | BLOOD UREA NITROGEN [1]: 15 mg/dL | CARBON DIOXIDE [1]: 26.67 mmol/L | CHLORIDE [1]: 105 MEQ/L | CHOLESTEROL [1]: 72.33 mg/dL | CREATINE PHOSPHOKINASE [1]: 577.67 u/L | CREATININE [1]: 0.17 mg/dL | GLUCOSE [1]: 196.67 mg/dL | LACTATE DEHYDROGENASE [1]: 171.67 u/L | LIPASE [1]: 8.33 u/L | PHOSPHORUS [1]: 13.4 mg/dL | POTASSIUM [1]: 5.91 MEQ/L | SODIUM [1]: 144 MEQ/L | TOTAL BILIRUBIN [1]: 0.2 mg/dL | TOTAL PROTEIN [1]: 5.4 G/DL | URIC ACID [1]: 1.37 mg/dL | ABSOLUTE BASOPHIL [2]: 0 CELLS/uL | ABSOLUTE EOSINOPHIL [2]: 0 CELLS/uL | ABSOLUTE LYMPHOCYTE [2]: 13516.33 CELLS/uL | ABSOLUTE MONOCYTE [2]: 50.67 CELLS/uL | ABSOLUTE SEGMENTED NEUTROPHIL [2]: 1033 CELLS/uL | BASOPHIL [2]: 0% | EOSINOPHIL [2]: 0% | ERYTHROCYTE COUNT [2]: 5.59 x10E6/uL | HEMATOCRIT [2]: 35.97% | HEMOGLOBIN [2]: 14.1 G/DL | LEUKOCYTE COUNT [2]: 14.6 x10E3/uL | LYMPHOCYTE [2]: 92.67% | MEAN CORPUSCULAR HEMOGLOBIN [2]: 25.23 pg | MEAN CORPUSCULAR HEMOGLOBIN CONCENTRATION [2]: 39.17 G/DL | MEAN CORPUSCULAR VOLUME [2]: 64.33 fL | MONOCYTE [2]: 0.33% | NEUTROPHIL [2]: 7% | NUCLEATED RED BLOOD CELLS [2]: 0 /100WBC | PLATELET COUNT [2]: 1165 x10E3/uL | ALANINE AMINOTRANSFERASE [2]: 55 u/L | ALBUMIN [2]: 4.23 G/DL | ALKALINE PHOSPHATASE [2]: 407 u/L | ASPARTATE AMINOTRANSFERASE [2]: 79.33 u/L | BLOOD UREA NITROGEN [2]: 18 mg/dL | CARBON DIOXIDE [2]: 27.67 mmol/L | CHLORIDE [2]: 103 MEQ/L | CHOLESTEROL [2]: 69.33 mg/dL | CREATINE PHOSPHOKINASE [2]: 252.67 u/L | CREATININE [2]: 0.22 mg/dL | GLUCOSE [2]: 176 mg/dL | LACTATE DEHYDROGENASE [2]: 155.33 u/L | LIPASE [2]: 11.33 u/L | PHOSPHORUS [2]: 11.3 mg/dL | POTASSIUM [2]: 6.08 MEQ/L | SODIUM [2]: 143.2 MEQ/L | TOTAL BILIRUBIN [2]: 0.2 mg/dL | TOTAL PROTEIN [2]: 5.8 G/DL | URIC ACID [2]: 1.3 mg/dL | ABSOLUTE BASOPHIL [3]: 0 CELLS/uL | ABSOLUTE EOSINOPHIL [3]: 0 CELLS/uL | ABSOLUTE LYMPHOCYTE [3]: 16113.33 CELLS/uL | ABSOLUTE MONOCYTE [3]: 104 CELLS/uL | ABSOLUTE SEGMENTED NEUTROPHIL [3]: 1216 CELLS/uL | BASOPHIL [3]: 0% | EOSINOPHIL [3]: 0% | ERYTHROCYTE COUNT [3]: 5.67 x10E6/uL | HEMATOCRIT [3]: 35.07% | HEMOGLOBIN [3]: 14.07 G/DL | LEUKOCYTE COUNT [3]: 17.43 x10E3/uL | LYMPHOCYTE [3]: 92% | MEAN CORPUSCULAR HEMOGLOBIN [3]: 24.8 pg | MEAN CORPUSCULAR HEMOGLOBIN CONCENTRATION [3]: 40.1 G/DL | MEAN CORPUSCULAR VOLUME [3]: 61.83 fL | MONOCYTE [3]: 0.67% | NEUTROPHIL [3]: 7.33% | NUCLEATED RED BLOOD CELLS [3]: 0 /100WBC | PLATELET COUNT [3]: 1266.33 x10E3/uL | ALANINE AMINOTRANSFERASE [3]: 69 u/L | ALBUMIN [3]: 3.97 G/DL | ALKALINE PHOSPHATASE [3]: 487 u/L | ASPARTATE AMINOTRANSFERASE [3]: 117 u/L | BLOOD UREA NITROGEN [3]: 13 mg/dL | CARBON DIOXIDE [3]: 29 mmol/L | CHLORIDE [3]: 102.33 MEQ/L | CHOLESTEROL [3]: 68.33 mg/dL | CREATINE PHOSPHOKINASE [3]: 365.33 u/L | CREATININE [3]: 0.24 mg/dL | GLUCOSE [3]: 140.67 mg/dL | LACTATE DEHYDROGENASE [3]: 544.67 u/L | LIPASE [3]: 12.33 u/L | PHOSPHORUS [3]: 11.13 mg/dL | POTASSIUM [3]: 5.99 MEQ/L | SODIUM [3]: 142.27 MEQ/L | TOTAL BILIRUBIN [3]: 0.23 mg/dL | TOTAL PROTEIN [3]: 5.47 G/DL | URIC ACID [3]: 1.4 mg/dL | ABSOLUTE BASOPHIL [4]: 0 CELLS/uL | ABSOLUTE EOSINOPHIL [4]: 0 CELLS/uL | ABSOLUTE LYMPHOCYTE [4]: 11610.33 CELLS/uL | ABSOLUTE MONOCYTE [4]: 237.67 CELLS/uL | ABSOLUTE SEGMENTED NEUTROPHIL [4]: 1485.33 CELLS/uL | BASOPHIL [4]: 0% | EOSINOPHIL [4]: 0% | ERYTHROCYTE COUNT [4]: 6.3 x10E6/uL | HEMATOCRIT [4]: 38.7% | HEMOGLOBIN [4]: 15.17 G/DL | LEUKOCYTE COUNT [4]: 13.33 x10E3/uL | LYMPHOCYTE [4]: 87.33% | MEAN CORPUSCULAR HEMOGLOBIN [4]: 24.13 pg | MEAN CORPUSCULAR HEMOGLOBIN CONCENTRATION [4]: 39.23 G/DL | MEAN CORPUSCULAR VOLUME [4]: 61.5 fL | MONOCYTE [4]: 1.67% | NEUTROPHIL [4]: 11% | NUCLEATED RED BLOOD CELLS [4]: 0 /100WBC | PLATELET COUNT [4]: 1093.67 x10E3/uL | ALANINE AMINOTRANSFERASE [4]: 36.67 u/L | ALBUMIN [4]: 4.27 G/DL | ALKALINE PHOSPHATASE [4]: 295.33 u/L | ASPARTATE AMINOTRANSFERASE [4]: 110.67 u/L | BLOOD UREA NITROGEN [4]: 15.33 mg/dL | CARBON DIOXIDE [4]: 28.67 mmol/L | CHLORIDE [4]: 104.67 MEQ/L | CHOLESTEROL [4]: 55.67 mg/dL | CREATINE PHOSPHOKINASE [4]: 254 u/L | CREATININE [4]: 0.21 mg/dL | GLUCOSE [4]: 151.33 mg/dL | LACTATE DEHYDROGENASE [4]: 321.67 u/L | LIPASE [4]: 10.67 u/L | PHOSPHORUS [4]: 9.9 mg/dL | POTASSIUM [4]: 4.59 MEQ/L | SODIUM [4]: 146.27 MEQ/L | TOTAL BILIRUBIN [4]: 0.1 mg/dL | TOTAL PROTEIN [4]: 5.77 G/DL | URIC ACID [4]: 1.13 mg/dL

Reference: ChEMBL document CHEMBL3885881, “DrugMatrix”
